Test results published in ChEMBL document CHEMBL1777673, “Synthesis and biological evaluation of 3-alkyl-dihydrotetrabenazine derivatives as vesicular monoamine transporter-2 (VMAT2) ligands” (Bioorg Med Chem Lett, 2011).

Columns and labels:
[1] = target: T1, Synaptic vesicular amine transporter (Rattus norvegicus, UniProt Q01827); test: Displacement of [125I]-iodovinyl-TBZ from VMAT2 in rat striatal homogenate after 60 mins by gamma counting
[2] = target: T1, Synaptic vesicular amine transporter; test: Displacement of [18F](+)-FP-DTBZ from VMAT2 in rat striatal homogenate after 60 mins by gamma counting
Nucleic Acid = test: Ratio of drug uptake in striatum to cerebellum in ICR mouse at 10 to 20 uCi, iv by gamma counting; assay type: ADME, organism-based; conditions: in vivo

T1 sequence (Q01827 whole entry): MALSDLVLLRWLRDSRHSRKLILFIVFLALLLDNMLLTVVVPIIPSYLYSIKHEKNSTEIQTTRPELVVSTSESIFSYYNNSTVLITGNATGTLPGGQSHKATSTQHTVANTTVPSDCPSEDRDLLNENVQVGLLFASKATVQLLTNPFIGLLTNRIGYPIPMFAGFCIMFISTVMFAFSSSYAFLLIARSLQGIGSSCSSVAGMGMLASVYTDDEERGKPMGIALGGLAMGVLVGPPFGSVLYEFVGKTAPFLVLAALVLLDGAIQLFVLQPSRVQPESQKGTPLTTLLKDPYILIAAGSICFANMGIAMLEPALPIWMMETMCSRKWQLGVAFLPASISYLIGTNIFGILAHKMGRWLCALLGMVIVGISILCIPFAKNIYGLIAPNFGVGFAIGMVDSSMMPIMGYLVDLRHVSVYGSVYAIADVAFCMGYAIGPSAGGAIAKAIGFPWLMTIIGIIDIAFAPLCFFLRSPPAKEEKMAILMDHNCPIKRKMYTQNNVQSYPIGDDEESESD

Structure (SMILES)	Ki [1] [nM]	other results
COc1cc2c(cc1OCCCF)CCN1C[C@@H](CC(C)C)[C@H](O)C[C@H]21 [FLORBENAZINE]	0.1	
C/C=C/C1CN2CCc3cc(OCCCF)c(OC)cc3C2C[C@H]1O (mixture of isomers)		Ki [2]: 22.4 nM
COc1cc2c(cc1OC)C1C[C@@H](O)C(CC3CCC3)CN1CC2 (mixture of isomers)	26.9	
C=CCC1CN2CCc3cc(OC)c(OC)cc3C2C[C@H]1O (mixture of isomers)		Ki [2]: 253 nM
COc1cc2c(cc1OCCC[18F])CCN1C[C@@H](CC(C)C)[C@H](O)C[C@H]21 [FLORBENAZINE F 18]		Ratio (Nucleic Acid): 4.51

The next lines start with results.

Ki [1] [nM]	Structure (SMILES)	other results
137	COc1cc2c(cc1OC)C1C[C@@H](O)C(CC3CCCCC3)CN1CC2 (mixture of isomers)	
227	COc1cc2c(cc1OC)C1C[C@@H](O)C(CC3CCCC3)CN1CC2 (mixture of isomers)	
